Measured values published in US20260306491A1, “EGFR INHIBITOR FOR TREATING CANCERS COMPRISING ATYPICAL EGFR MUTATIONS” (ORIC Pharmaceuticals, Inc., priority 2023, published 2026).

Tested on: EGFR exon 20 mutated NSCLC with active CNS metastases
Assay: Clinical evaluation in one subject (Example 11)
Assay type: in vivo, human
Conditions: hemifumarate, 75 mg QD
Method: A subject having EGFR exon 20 mutated non-small cell lung cancer was enrolled in a clinical study relating to Compound I. The cancer in the subject had been previously treated with chemotherapy (pemetrexed/cisplatin) and amivantamab. The subject presented with four active CNS non-target lesions that were previously untreated, and for which the subject had not undergone prior surgery or radiation treatment. The subject was enrolled in a dosing cohort that received 75 mg QD of Compound I in the form of a hemifumarate salt.

For `C=CC(=O)Nc1cc(Nc2cc(N3OCC[C@@H]3c3cc(F)cc(F)c3)ncn2)c(OC)cc1N1CCC(N2CCN(C3CC3)CC2)CC1` [Compound I, N-[2-[4-(4-cyclopropyl-1-piperazinyl)-1-piperidinyl]-5-[[6-[(3R)-3-(3,5-difluorophenyl)-2-isoxazolidinyl]-4-pyrimidinyl]amino]-4-methoxyphenyl]-2-propenamide], the “Reduction of all target and non-target lesions” value (after cycle 1 (28 days)) was 60%, the “Reduction of all 4 CNS lesions” value (after cycle 1, confirmed after cycle 2) was 100% and the “Duration of dosing at data cutoff” value (continuing) was “on dosing cycle 9”. The EGFR-related adverse events (data cutoff Sep. 26, 2023) was “Grade 2 mucositis and Grade 2 paronychia”, the “Reduction of all target and non-target lesions” value (end of cycle 2) was 100% and the Tumor response (end of cycle 2, confirmed) was “complete response”.
